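Assay format: 96-well plates, 48-hour exposure. GI50 marks 50% less growth.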 Calls of active or inactive are those of the source. No stated cut-off is given here; in the data, active = GI50 up to about 1.1 µM and inactive = higher.
Tests used:
Test in all cases: NCI-60 cell line screen, 48 h
MCF7 = system: MCF7
U-251 = system: U-251
SK-OV-3 = system: SK-OV-3
ACHN = system: ACHN
COLO 205 = system: COLO 205
UACC-62 = system: UACC-62
A549 = system: A549
T47D = system: T47D
HL-60 = system: HL-60
OVCAR-8 = system: OVCAR-8
MDA-MB-231 = system: MDA-MB-231
SF-268 = system: SF-268
PC-3 = system: PC-3
UACC-257 = system: UACC-257
NCI-H226 = system: NCI-H226
SF-539 = system: SF-539
SK-MEL-5 = system: SK-MEL-5
MOLT-4 = system: MOLT-4
NCI/ADR-RES = system: NCI/ADR-RES
Hs-578T = system: Hs-578T
SK-MEL-2 = system: SK-MEL-2
EKVX = system: EKVX
SW-620 = system: SW-620
786-0 = system: 786-0
SNB-19 = system: SNB-19
SN12C = system: SN12C
SNB-75 = system: SNB-75
HCT-116 = system: HCT-116
K562 = system: K562
HCT-15 = system: HCT-15
HT-29 = system: HT-29
NCI-H23 = system: NCI-H23
HCC 2998 = system: HCC 2998
M14 = system: M14
NCI-H522 = system: NCI-H522
HOP-92 = system: HOP-92
BT-549 = system: BT-549
MDA-MB-435 = system: MDA-MB-435
UO-31 = system: UO-31
A498 = system: A498
SK-MEL-28 = system: SK-MEL-28
OVCAR-5 = system: OVCAR-5
RXF 393 = system: RXF 393
LOX IMVI = system: LOX IMVI
HOP-62 = system: HOP-62
OVCAR-4 = system: OVCAR-4
DU-145 = system: DU-145
NCI-H460 = system: NCI-H460
RPMI-8226 = system: RPMI-8226
CCRF-CEM = system: CCRF-CEM
OVCAR-3 = system: OVCAR-3
TK-10 = system: TK-10
SF-295 = system: SF-295
SR = system: SR
Malme-3M = system: Malme-3M
IGROV-1 = system: IGROV-1
KM12 = system: KM12

For `O=C1C(Sc2ccc3ccccc3c2)=C(Sc2ccc3ccccc3c2)C(=O)c2ccccc21`, the GI50 (MCF7) was 11.2 µM (inactive), the GI50 (U-251) was 6.21 µM (inactive) and the GI50 (SK-OV-3) was 22.7 µM (inactive). The GI50 (ACHN) was 4.55 µM (inactive), the GI50 (COLO 205) was 3.95 µM (inactive) and the GI50 (UACC-62) was 3.24 µM (inactive). For the same molecule, the GI50 (A549) was 4.72 µM (inactive), the GI50 (T47D) was 1.76 µM (inactive) and the GI50 (HL-60) was 1.1 µM (active). The GI50 (OVCAR-8) was 10.5 µM (inactive), the GI50 (MDA-MB-231) was 4.59 µM (inactive) and the GI50 (SF-268) was 11 µM (inactive). For the same molecule, the GI50 (PC-3) was 14.4 µM (inactive), the GI50 (UACC-257) was 3.57 µM (inactive) and the GI50 (NCI-H226) was 13.9 µM (inactive). The GI50 (SF-539) was 10.2 µM (inactive), the GI50 (SK-MEL-5) was 2.81 µM (inactive) and the GI50 (MOLT-4) was 2.32 µM (inactive). For the same molecule, the GI50 (NCI/ADR-RES) was 13.2 µM (inactive), the GI50 (Hs-578T) was 8.57 µM (inactive) and the GI50 (SK-MEL-2) was 5.53 µM (inactive). The GI50 (EKVX) was 10.5 µM (inactive), the GI50 (SW-620) was 4.8 µM (inactive) and the GI50 (786-0) was 12.7 µM (inactive). For the same molecule, the GI50 (SNB-19) was 8.09 µM (inactive), the GI50 (SN12C) was 12.1 µM (inactive) and the GI50 (SNB-75) was 14 µM (inactive). For the same molecule, the GI50 (HCT-116) was 7.59 µM (inactive), the GI50 (K562) was 3.47 µM (inactive) and the GI50 (HCT-15) was 9.06 µM. The GI50 (HT-29) was 15.6 µM (inactive), the GI50 (NCI-H23) was 5.13 µM (inactive) and the GI50 (HCC 2998) was 5.38 µM (inactive). The GI50 (M14) was 11.5 µM (inactive), the GI50 (NCI-H522) was 1.97 µM (inactive) and the GI50 (HOP-92) was 6.64 µM (inactive). For the same molecule, the GI50 (BT-549) was 12 µM (inactive), the GI50 (MDA-MB-435) was 17.7 µM (inactive) and the GI50 (UO-31) was 3.95 µM (inactive). The GI50 (A498) was 14.8 µM (inactive), the GI50 (SK-MEL-28) was 15.2 µM (inactive) and the GI50 (OVCAR-5) was 11.3 µM (inactive). The GI50 (RXF 393) was 14.8 µM (inactive), the GI50 (LOX IMVI) was 11.4 µM (inactive) and the GI50 (HOP-62) was 13.1 µM (inactive). The GI50 (OVCAR-4) was 3.47 µM (inactive), the GI50 (DU-145) was 22 µM (inactive) and the GI50 (NCI-H460) was 7.82 µM (inactive).

With `O=C1NC(O)c2cc3ccccc3cc2O1` (stereo not drawn) the GI50 (MCF7) was 29.6 µM (inactive), the GI50 (U-251) was 26.5 µM (inactive) and the GI50 (SK-OV-3) was > 100 µM (inactive). For the same molecule, the GI50 (RPMI-8226) was 38.5 µM (inactive), the GI50 (CCRF-CEM) was 29.2 µM (inactive) and the GI50 (ACHN) was > 100 µM (inactive). The GI50 (COLO 205) was > 100 µM (inactive), the GI50 (UACC-62) was 21.7 µM (inactive) and the GI50 (A549) was > 100 µM (inactive). For the same molecule, the GI50 (T47D) was 25.5 µM (inactive), the GI50 (HL-60) was 28.4 µM (inactive) and the GI50 (OVCAR-8) was 39.2 µM (inactive). For the same molecule, the GI50 (OVCAR-3) was 26.4 µM (inactive), the GI50 (MDA-MB-231) was 34.4 µM (inactive) and the GI50 (TK-10) was > 100 µM (inactive). For the same molecule, the GI50 (SF-268) was 61.7 µM (inactive), the GI50 (PC-3) was 31.1 µM (inactive) and the GI50 (UACC-257) was 61.1 µM (inactive). The GI50 (NCI-H226) was > 100 µM (inactive), the GI50 (SF-539) was 28 µM (inactive) and the GI50 (SK-MEL-5) was 56.5 µM (inactive). The GI50 (MOLT-4) was 30.5 µM (inactive), the GI50 (NCI/ADR-RES) was 51.4 µM (inactive) and the GI50 (Hs-578T) was 37.1 µM (inactive). The GI50 (EKVX) was > 100 µM (inactive), the GI50 (SW-620) was 61.1 µM (inactive) and the GI50 (786-0) was > 100 µM (inactive). For the same molecule, the GI50 (SNB-19) was 60 µM (inactive), the GI50 (SF-295) was > 100 µM (inactive) and the GI50 (SN12C) was 69 µM (inactive). The GI50 (SNB-75) was 79.6 µM (inactive), the GI50 (HCT-116) was 20 µM (inactive) and the GI50 (K562) was 34.9 µM (inactive). The GI50 (HCT-15) was 19.1 µM, the GI50 (HT-29) was > 100 µM (inactive) and the GI50 (NCI-H23) was 42.7 µM (inactive). The GI50 (HCC 2998) was > 100 µM (inactive), the GI50 (SR) was 24.3 µM (inactive) and the GI50 (M14) was 38.6 µM (inactive). The GI50 (NCI-H522) was > 100 µM (inactive), the GI50 (HOP-92) was 25.6 µM (inactive) and the GI50 (Malme-3M) was 59.7 µM (inactive). The GI50 (BT-549) was 26.4 µM (inactive), the GI50 (IGROV-1) was 69.5 µM (inactive) and the GI50 (MDA-MB-435) was 51.8 µM (inactive). For the same molecule, the GI50 (UO-31) was > 100 µM (inactive), the GI50 (KM12) was > 100 µM (inactive) and the GI50 (SK-MEL-28) was 69.8 µM (inactive). The GI50 (OVCAR-5) was > 100 µM (inactive), the GI50 (RXF 393) was > 100 µM (inactive) and the GI50 (LOX IMVI) was 46.6 µM (inactive). The GI50 (HOP-62) was > 100 µM (inactive), the GI50 (OVCAR-4) was 76 µM (inactive) and the GI50 (DU-145) was > 100 µM (inactive). For the same molecule, the GI50 (NCI-H460) was > 100 µM (inactive).
